Results as given in article PMC11475408, “All‐Inorganic Polyoxometalates Act as Superchaotropic Membrane Carriers” (Advanced Materials (Deerfield Beach, Fla.), 2023).
Like-named read-outs stand apart in the source and are kept apart here. Values belong to the compound of their own block, whether it stands above or below them.

Legend:
[1] = CF transport assay in EYPC⊃CF vesicles (carrier activity); type: biochemical; parameters: key to Carrier activity: ‐ – ‐: No detectable activity at pH 5.5 and 7.4; details: for Carrier activity: EYPC vesicles, pH 5.5 and 7.4, cargos heptaArg, protamine, polyArg ([AlMo6]: heptaArg and protamine only); for Transport activity (in words): EYPC⊃CF vesicles, neutral pH, carrier then cargo; for EC50: 5% error (SD)
Text: The capability of POMs to act as membrane carriers was explored first in large unilamellar vesicles (LUVs) loaded with carboxyfluorescein (CF).^[ [54], [55] ^] We selected […] representative cationic peptides, heptaarginine (heptaArg), heptalysine (heptaLys), protamine, and polyarginine (polyArg), as test cargos. Inside the LUVs, the CF dye was encapsulated at self‐quenching concentrations. With a suitable carrier, heptaArg can be taken up into the vesicles, bind with entrapped CF, and shuttle back to the exterior, diluting the previously quenched CF, and thereby restoring its fluorescence (Figure 1c). In the time‐resolved fluorescence experiments (Figure 2a), to test whether a particular POM acts as molecular carrier, the CF emission was continuously monitored during the addition of the inorganic carrier (t = 60 s) and after injection of the impermeable selected cargo (t = 120 s). Toward the end of the experiment (t = 600 s), the surfactant Triton X‐100 was added to release all the entrapped CF and allow normalization of the intensity data.
A thin lipid film was prepared by evaporating a lipid solution of EYPC (egg yolk phosphatidylcholine, 25 mg) in CHCl3 (1 mL) with a stream of nitrogen and then dried in vacuo overnight. The dry film was rehydrated with 1 mL buffer (50 mM CF, 10 mM Hepes, pH 7.4 or 50 mM CF, 10 mM Tris, pH 7.4) for 30 min at room temperature, subjected to freeze–thaw cycles (7 times) and extrusions (15 times) through a polycarbonate membrane (pore size 100 nm). Extravesicular components were removed by size exclusion chromatography (NAP‐25 column Sephadex G‐25 DNA grade) with 10 mM Hepes, 107 mM NaCl, pH 7.4, or 10 mM Hepes, 107 mM NaCl, pH 7.4. Phospholipid concentration was calculated by the Stewart assay.^[ [81] ^]
Acidic vesicles were prepared analogously but the rehydration and elution buffer were 50 mM CF, 10 mM Mes, pH 5.5 and 10 mM Mes, 107 mM NaCl, pH 5.5. respectively.
Vesicles stock solutions (5–10 µL) were diluted with the corresponding buffer in a disposable plastic cuvette and gently stirred (total volume 2000 µL, final lipid concentration 13 µM). Carboxyfluorescein fluorescence was monitored at λ em = 517 nm (λ ex = 492 nm) as a function of time after addition of POMs at 60 s, analyte at 120 s and Triton X‐100 (24 µL 1.2% wt/vol) at 600 s to lyse the vesicles, for calibration. Fluorescence intensities were normalized to fractional emission as (1) It=It−I0/I∞−I0 where I 0 = I t before POM addition and […] after lysis. For Hill analysis, I t before lysis was defined as transport activity, Y, and plotted against POM concentration, c, and fitted to the Hill Equation (2), to afford the activity in absence of POM, Y 0, the maximal activity, Y max, the concentration needed to achieve 50% of maximal activity, EC 50, and the Hill coefficient, n (2) Y=Y0+Ymax−Y0/1+EC50/c^n
In the transport measurements, where different carriers (POMs) are tested with the same cargo, the activator efficiency (E) is determined by their capacity to transport the impermeable cargo to the intravesicular region and is characterized by Y max, its maximal activity, and EC 50, the effective activator concentration. An ideal carrier reaches high Y max at low EC 50. To count both factors, the activator efficiency is defined as (3) E=YmaxpEC50/f were pEC 50 is the negative logarithm of the EC 50, and f a scaling factor, which was set to 20.6 to calibrate the highest (previously known) activation efficiency, E, as 10.^[ [55] ^]

[2] = Hydrolysis/stability of POMs in buffer by NMR; details: for Hydrolysis/stability pH 7.5: 10 mM Hepes or Tris, pH 7.4; for Hydrolysis/stability pH 7.5 / Hydrolysis/stability pH 5.5: 107 mM NaCl, NMR, long-term (24 h and longer); for Stability at pH 7.5 by NMR (in words): Hepes or Tris-HCl pH 7.5, 27Al, 31P or 183W NMR, fresh and aged 1-3 days; for Hydrolysis/stability pH 5.5: 10 mM Mes
Experimental: First, their long‐term (24 h and longer) fate in aqueous solution (slightly acidic and neutral) was investigated by applying the active NMR nuclei in their composition (Table S9 and Figures S24–S37, see the Supporting Information for details).
NMR-spectroscopic characterization of identity and stability
NMR spectroscopy for all POMs tested was performed under experimental conditions.

[3] = Membrane disruption of liposomes by POM alone (CF fluorescence, DLS); type: biochemical; details: higher than 100 µM POM, 10 mM Tris, 107 mM NaCl, pH 7.4
Experimental: It should be noted that the addition of POMs alone (without cargo) retained the stability of the liposomes in the studied concentration range (up to 100 µM), that is, neither an increase in CF fluorescence nor changes in size distribution as obtained by dynamic light scattering experiments (DLS, see Figure S4, Supporting Information) were observed, which would have signaled membrane rupture. These negative controls allowed us to proceed to the carrier experiments, with added cargo.
DLS experiments of the vesicles were carried out on a Malvern Instruments DTS Nano 2000 Zeta‐Sizer. A POM concentration of 100 µM was chosen as default, since this is the highest concentration at which membrane transport was evaluated. The cargo concentration was set to be same as in the transport experiments, namely 10 µM for heptaarginine, 1 µM for protamine, and 0.1 µM for polyarginine. Note that the POMs themselves, with a size of ≈1 nm, fall below the detection limit (>10 nm) of the DLS instrument.
Figure S3. Transport activity, Y, for polyarginine (0.1 µM) in EYPC[…]CF liposomes as a function of the concentration of the different evaluated POMs. Solid lines correspond to the resulting fit with the Hill equation. Blue squares are data obtained at neutral pH, and red stars data obtained at acidic pH.
Table S4. Membrane transport parametersa) of active POMs at neutralb) and acidicc) pH.
HeptaArgd) Protaminee) PolyArgf) carrier pH Hydrolysis/Stability
Ymax [%]g) EC50h) [µM] E i) Ymax [%] EC50 [µM] E Ymax [%] EC50 [µM] E […]
Figure S5. Transport kinetics (left pannels), dose response curves (middle pannels) for cargo transport, and size distribution (by DLS, right pannels) for [PW12]3‒ (top) and [SiW12]4‒ (bottom), measured with EYPC[…]CF liposomes at pH 7.4, but preserving the POM solution at pH 1.2 before addition. As shown in panel a, the addition of [PW12]3‒ alone gave a fluorescence increase, pointing to membrane disruption, which was confirmed by DLS (panel c). […]

[4] = tested on: methicillin-resistant Staphylococcus aureus (SR3605, ATCC43300); details: in combination with β-Lactamase, Mueller-Hinton broth, pH 7.4, 34 °C, cited from earlier work
Text: page 4: 2. Literature survey Table S1. Survey of experimentally proven membrane penetration of POMs according to a search in Scopus (“polyoxometalate” and “membrane penetration”) up to the submission date of the manuscript.

CHO‐K1 cells = assay: FITC-Arg8 uptake in live cells, confocal imaging; type: cell-based, Chinese hamster; details: 30 min, 37 °C; for FITC-Arg8 uptake promoted by carrier: carrier 5 µM, 5 min, then FITC-Arg8 5 µM, four biological replicates
Experimental: CHO‐K1 cells were plated into µ‐Slide 8‐well plates (ibidi) at a density of ≈1 × 10^5 cells per well (per 1 mL) and incubated for 24 h in Ham's F‐12 medium containing 10% v/v fetal bovine serum and 1.0% penicillin streptomycin at 37 °C in a 5% CO2 atmosphere. The cells were washed twice with Hank's buffer, incubated for 5 min at 37 °C in Ham's F‐12 medium without phenol red with carrier (5 µM), and subsequently in Ham's F‐12 medium without phenol red with 5 µM FITC‐Arg8 for 30 min at 37 °C. Cells in the absence of carrier were used as control. The cells were washed twice with Hank's buffer containing 100 µg mL^−1 heparin and then washed twice with Ham's F‐12 medium without phenol red. The nuclear staining was performed by incubating the cells with 10 µg mL^−1 Hoechst 33 342 (bis‐benzimide H33342 trihydrochloride) for 10 min at 37 °C. Cells were directly imaged as stated above.

[5] = CF assay, EYPC LUVs, 0.1 µM polyArg, pH 7.4, read-out: PolyArg EC 50
[6] = CF assay, EYPC LUVs, 0.1 µM polyArg, pH 7.4, ±2% error (SD)
[7] = EYPC LUVs, 0.1 µM polyArg, pH 7.4, f = 20.6, 10% error

Hydrolysis/stability pH 7.5 [2]: Stable
Stability at pH 7.5 by NMR (in words) [2]: integrity at pH 7.5
Compound: (C4H12N)4[α‐HAl^IIIGe^IVW^VI 11O39(H2O)]·11H2O [[AlGeW11]^5‒]
Carrier activity [1]: ‐ – ‐ ^k)

Stability at pH 7.5 by NMR (in words) [2]: [SiIVWVI11O39]8‒ is predominant
Compound: K4[α‐Si^IVW^VI 12O40]·14H2O [[SiW12]^4‒]
Carrier activity [1]: ‐ – ‐ ^k) , ^m)
Cargo transport with POM solution kept at pH 1.2 ([1]; EYPC⊃CF liposomes at pH 7.4, POM solution preserved at pH 1.2 before addition): showed the desired cargo transport at acidic pH, without membrane disruption
Transport activity (in words) [1]: neither an interaction with the membrane nor cargo transport
Vesicle lysis at higher concentrations [3]: led to vesicle lysis

EC50 [1, 5]: 11 µM
Hydrolysis/stability pH 7.5 [2]: Stable
Compound: Na3[Al^III(OH)6Mo^VI 6O18]·2H2O [[AlMo6]^3‒]
PolyArg Y max [1, 6]: 33%
PolyArg E (activation efficiency) [1, 7]: 3.1
Carrier activity [1]: ‐ – ‐ ^k)
Transport activity (in words) [1]: incipient transport activity, but only for polyarginine as cargo

Compound: Cc1onc(-c2ccccc2)c1C(=O)N[C@@H]1C(=O)N2[C@@H]1SC(C)(C)[C@@H]2C(=O)O [oxacillin]
MIC ([4]; ref [8]): 256 µg/mL
MIC ([4]; ref [9]): 256 µg/mL

Hydrolysis/stability pH 7.5 [2]: Stable
Hydrolysis/stability pH 5.5 [2]: Stable
Compound: B12Br12 ^2‒ [reference compound]
FITC-Arg8 uptake promoted by carrier (CHO‐K1 cells): did not achieve efficient uptake

Hydrolysis/stability pH 7.5 [2]: Stable
Stability at pH 7.5 by NMR (in words) [2]: stable at pH 7.5
Compound: Na5[α‐Al^IIIW^VI 12O40]·12H2O [[AlW12]^5‒]
Carrier activity [1]: ‐ – ‐ ^k)

Compound: 5(6)‐fluorescein isothiocyanate‐labelled octaarginine [FITC‐Arg8]
Uptake of FITC-Arg8 without carrier (CHO‐K1 cells; FITC-Arg8 5 µM): minor punctate fluorescence

Compound: O=C(O)CCCc1ccc2ccc3cccc4ccc1c2c34 [PyBu^‒, pyrenebutyrate, reference compound]
HeptaArg Y max ([1]; CF assay, EYPC LUVs, 13 µM lipid, 10 µM heptaArg, 10 mM Hepes or Tris, 107 mM NaCl, pH 7.4, 10 min, Hill fit, triplicates, ±2% error (SD)): 100%
EC50 [1, 5]: 12 µM
PolyArg Y max [1, 6]: 91%
EC50 ([1]; CF assay, EYPC LUVs, 1 µM protamine, pH 7.4, read-out: Protamine EC 50): 39 µM
Protamine Y max ([1]; CF assay, EYPC LUVs, 1 µM protamine, pH 7.4, ±2% error (SD)): 77%
EC50 ([1]; CF assay, EYPC LUVs, 10 µM heptaArg, pH 7.4, carrier concentration for 50% of Ymax, read-out: HeptaArg EC 50): 100 µM
PolyArg E (activation efficiency) [1, 7]: 8.5
Protamine E (activation efficiency) ([1]; EYPC LUVs, 1 µM protamine, pH 7.4, f = 20.6, 10% error): 5.3
HeptaArg E (activation efficiency) ([1]; EYPC LUVs, 10 µM heptaArg, pH 7.4, E = Ymax(pEC50/f), f = 20.6, 10% error): 4.8
Efficacy when the sequence of addition was inverted ([1]; heptaarginine 10 µM, cargo before carrier (Figure S6)): significantly reduces its activity
FITC-Arg8 uptake promoted by carrier (CHO‐K1 cells): did not achieve efficient uptake
Hydrolysis/stability pH 7.5 [2]: Stable
Hydrolysis/stability pH 5.5 [2]: Stable
